Counter-ions that a name gives are not always drawn. Like-named read-outs stand apart in the source and are kept apart here.

The subject of test [1] is human HDAC (Hela cells nuclear extract). Nature of the test: HDAC activity screening, Hela nuclear extract, Boc-Lys(Ac)-AMC substrate. Format: biochemical. Conditions: for HDAC % Inhibition (1 μM): 1 μM compound; for HDAC % Inhibition (10 μM): 10 μM compound. Here is the method:
To study the human HDAC inhibition the in-house 96 well plate assay have been established using fluorescent substrate (Boc-Lys (Ac)-AMC Substrate). Hela cells nuclear extract have been used as enzyme source.
Assay was performed in 96-well black microplate and total volume of the assay was 100 μL. Hela nuclear extract was diluted HDAC assay buffer (final concentration of 3.0 μg/mL). Enzyme mixture was made of 10 μL of diluted enzyme and 30 μL of HDAC buffer. 40 μl of enzyme mixture followed by 10 μL of test compound (final concentration from 0.01 to 10 μM) or vehicle (control) was added to each well. The plate was pre-incubated at 37° C. for 10 minutes. The HDAC reaction was started by adding 50 μl of HDAC substrate Boc-Lys (Ac)-AMC (Anaspec, Inc Fremont, Calif., USA). The plate was incubated at 37° C. for 45 minutes. The reaction was stopped by adding 50 μL of Trypsin stop solution and plate further incubated at 37° C. for 15 minutes. Measuring the fluorescence at excitation wavelength of 360 nm and emission wavelength of 460 nm monitored the release of AMC. Buffer alone and substrate alone served as blank.

The next test concerns the target T1, hERG (Homo sapiens, UniProt Q12809).
T1 construct: expressed in transfected cells; host or cells: CHO cells (membrane preparation)
Nature of the test: hERG competitive binding assay (3H-Astemizole). As to conditions: hERG-CHO membrane, 1 nM 3H-Astemizole. Here is the method: The study was carried out to find our cardio safety of the test compounds. Brief procedure: The hERG competitive binding assay performed at a ligand concentration of 1 nM. The test compounds were dissolved in desired volume of 100% DMSO (stock conc. 50 mM). […] The test compound and membrane was pre-incubated for 10 Min at 30° C. 10 μL of ^3H-Astemizole was then added (final concentration of 1 nM), mixed well and incubated additionally for 90 min at 30° C. with mild shaking. At the end of reaction, binding was terminated by rapid filtration onto GF/C glass fiber filter mats, presoaked in 0.3% polyethyleneimine, followed by rapid washing 10 times with ice-cold wash buffer. Captured radiolabel was detected using a liquid scintillation counter. The percent inhibition of the compounds was calculated compared to the vehicle control.
On the technique in general: Block of hERG is tested as a sign of cardiac risk.

Another test has as its system HL-60 (AML) cells. Nature of the test: Differentiation assay. Type of test: cell-based. As to conditions: Homo sapiens, 72 h; HL-60 cells, 3 days, H2 DCF-DA oxidation. Here is the method: HL-60 (AML) cells were seeded (5×10^4 cells/well) into a 96 well plate and after 24 hrs cells were treated for 3 days with compounds in 8 different concentration (3000, 1000, 300, 100, 30, 10, 3, 1 nM) including control and 60 μM of H2 DCF-DA probe added to the cells. After 2 hours incubation oxidation of H2 DCF-DA was measured.

In another test the test system is Caspase-3. As to the kind of experiment: Caspase-3 activity in HT-29 cells. Type of test: cell-based. Conditions: Homo sapiens, 48 hours. Here is the method: Caspase-3 activity was measured in HT-29 cells using Caspase-3 assay kit, (Sigma). HT-29 cells were seeded (10,000 cells/well) in a 96 well plate and incubated overnight. Cells were treated with several concentrations (30, 10, 3, 1, 0.3, 0.1, 0.03, 0.01 μM) of the compounds and incubated for 48 hours and the cells were lysed. Assay was carried out according to the manufacturer's protocol. The fluorescent substrate was added in to the cell lysate and the fluorescence was measured at λexi360 and λemi460.

In another test the test system is NCI-H460. Nature of the test: Cell proliferation assay (MTT). Conditions: Homo sapiens. Format: cell-based. The procedure, abridged: (§1)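 MTT was added for 3 h, formazan dissolved in DMSO and A570 read. GI50 interpolated from dose-response curves of percentage growth relative to a T0 plate.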
The subject of the next test is PA-1. Nature of the test: Cell proliferation assay (MTT). Format: cell-based. As to conditions: Homo sapiens. The procedure, abridged:
as §1

The next test concerns SK-OV-3. As to the kind of experiment: Anti-proliferative activity (GI50). Type of test: cell-based. Conditions: Homo sapiens, Table 9, Ovary. The procedure, abridged: as §1
Another test deals with 786-O. As to the kind of experiment: Anti-proliferative activity (GI50). Type of test: cell-based. As to conditions: Homo sapiens, 786-0; Table 9; Renal. The procedure, abridged:
as §1

For another test, the system named is Hela-229. As to the kind of experiment: Anti-proliferative activity (GI50). As to conditions: Homo sapiens, Table 9, Cervix. Type of test: cell-based. The procedure, abridged: as §1
A further test has as its system NCI-H23. As to the kind of experiment: Anti-proliferative activity (GI50). Format: cell-based. Conditions: Homo sapiens, Table 9, Lung. The procedure, abridged: as §1
Where [2] appears, read: read-out: IC50 (50% HDAC inhibitory concentration), Table 2, Hela nuclear extract.
Setting [3] is: Table 1, MTT, 48 hours, read-out: Cell growth inhibition (GI50 in μM) NCI H460.
[4] abbreviates: Table 9, Lung, read-out: Anti-proliferative activity (GI50) NCI-H460.
Where [5] appears, read: Table 1, MTT, 48 hours, read-out: Cell growth inhibition (GI50 in μM) PA-1.
Setting [6] is: Table 9, Ovary, read-out: Anti-proliferative activity (GI50) PA-1.

T1 sequence (Q12809 whole entry): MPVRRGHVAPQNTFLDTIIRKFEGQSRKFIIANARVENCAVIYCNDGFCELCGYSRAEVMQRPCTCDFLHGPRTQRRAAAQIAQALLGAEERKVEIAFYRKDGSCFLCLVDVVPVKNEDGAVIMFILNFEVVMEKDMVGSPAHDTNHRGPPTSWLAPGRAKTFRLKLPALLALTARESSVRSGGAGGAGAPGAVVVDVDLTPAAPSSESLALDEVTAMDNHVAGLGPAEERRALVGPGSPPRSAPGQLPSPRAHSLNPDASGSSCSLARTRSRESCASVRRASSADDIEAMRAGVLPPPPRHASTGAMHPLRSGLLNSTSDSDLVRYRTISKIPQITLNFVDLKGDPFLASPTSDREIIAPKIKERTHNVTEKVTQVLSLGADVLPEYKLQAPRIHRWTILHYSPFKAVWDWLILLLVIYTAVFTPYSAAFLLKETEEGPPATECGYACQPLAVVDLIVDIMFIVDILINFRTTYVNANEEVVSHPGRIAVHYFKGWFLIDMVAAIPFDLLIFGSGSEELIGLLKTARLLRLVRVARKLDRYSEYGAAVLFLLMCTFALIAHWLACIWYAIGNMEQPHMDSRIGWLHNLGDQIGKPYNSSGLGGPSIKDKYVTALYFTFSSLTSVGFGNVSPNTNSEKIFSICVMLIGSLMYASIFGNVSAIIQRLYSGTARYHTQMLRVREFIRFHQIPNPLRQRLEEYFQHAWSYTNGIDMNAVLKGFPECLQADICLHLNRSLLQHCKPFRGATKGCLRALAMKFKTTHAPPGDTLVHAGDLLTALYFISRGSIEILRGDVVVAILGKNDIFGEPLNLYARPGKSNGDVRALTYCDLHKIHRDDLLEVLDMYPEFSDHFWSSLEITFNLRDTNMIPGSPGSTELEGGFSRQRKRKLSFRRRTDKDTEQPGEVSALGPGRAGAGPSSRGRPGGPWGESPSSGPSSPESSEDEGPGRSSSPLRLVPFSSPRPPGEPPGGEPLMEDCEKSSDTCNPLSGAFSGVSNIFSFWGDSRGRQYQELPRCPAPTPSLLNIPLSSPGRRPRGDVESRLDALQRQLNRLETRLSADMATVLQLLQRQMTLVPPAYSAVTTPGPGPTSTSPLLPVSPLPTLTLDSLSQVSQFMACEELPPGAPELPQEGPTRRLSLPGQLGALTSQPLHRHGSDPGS

Usually EC50 stands for the concentration needed to bring the measured effect to its halfway point. Higher therefore signals lower potency in that assay. Broadly, the GI50 is the concentration giving 50% growth inhibition. For `O=C(NO)c1ccc(Cn2cc(-c3ccc(CN4CCCC4)cc3)nn2)cc1` [Example 8, N-Hydroxy-4-[4-(4-pyrrolidin-1-ylmethyl-phenyl)-[1,2,3]triazol-1-ylmethyl]-benzamide], the “HDAC % Inhibition (1 μM)” value in test [1] (Hela nuclear extract) is given as 95%. The “HDAC % Inhibition (10 μM)” value in [1] (Hela nuclear extract) turned out to be 100%. Besides, the IC50 in [1] (Table 8, read-out: IC50 (nM) Hela nuclear extract) came out at 3 nM; in test [1] (setting [2]), 3 nM; at hERG, 19.9 µM. In addition, the concentration for a half-maximal effect (EC50) with HL-60 (AML) cells was determined as 8240 nM; with Caspase-3 it was 1360 nM. Moreover, the GI50 with NCI-H460 (setting [3]) was 2.1 µM; in the test on NCI-H460 (setting [4]) it was 1.9 ± 0.75 µM; in the test with PA-1 (setting [5]), 0.15 ± 0.05 µM; in the test on PA-1 (setting [6]), 0.1 ± 0.01 µM; in the test on SK-OV-3, 1600 ± 100 nM; in the test on 786-O, 4100 ± 1400 nM. For the same compound, the GI50 is 1100 ± 230 nM in the test with Hela-229 and 900 ± 250 nM with NCI-H23.

`O=C(NO)c1ccc(Cn2cc(-c3ccc(CN4CCOCC4)cc3)nn2)cc1` [Example 9, N-Hydroxy-4-[4-(4-morpholin-4-ylmethyl-phenyl)-[1,2,3]triazol-1-ylmethyl]-benzamide]: the “HDAC % Inhibition (1 μM)” value in [1] (Hela nuclear extract) is recorded as 91%. Moreover, the “HDAC % Inhibition (10 μM)” value in test [1] (Hela nuclear extract) came to 99%. The IC50 in test [1] (setting [2]) is 57 nM; on hERG, more than 100 µM. In the test with Caspase-3, this compound registered an EC50 of 1500 nM. The GI50 stood at 2.4 ± 0.85 µM with NCI-H460 (setting [4]); 0.22 ± 0.03 µM in the test with PA-1 (setting [5]); 0.2 ± 0.037 µM in the test on PA-1 (setting [6]); 1800 ± 200 nM in the test with SK-OV-3; 2500 ± 1010 nM in the test on 786-O; 1400 ± 260 nM in the test with Hela-229. This compound also had a GI50 in the test with NCI-H23 of 2300 ± 1140 nM.

With `O=C(/C=C/c1ccc(Cn2cc(-c3ccc(CN4CCCC4)cc3)nn2)cc1)NO` [Example 16, N-Hydroxy-3-{4-[4-(4-pyrrolidin-1-ylmethyl-phenyl)-[1,2,3]triazol-1-ylmethyl]-phenyl}-acrylamide], in test [1] (Hela nuclear extract), the “HDAC % Inhibition (1 μM)” value is recorded as 99%. The “HDAC % Inhibition (10 μM)” value in test [1] (Hela nuclear extract) worked out at 100%. In addition, the values for the IC50 (in [1] (setting [2]); at hERG) were 4 nM and more than 100 µM, respectively. Besides, the EC50 with HL-60 (AML) cells came to 2880 nM; in the test with Caspase-3 it was 6590 nM. For the same compound, the GI50 in the test on NCI-H460 (setting [3]) turned out to be 0.4 µM; with NCI-H460 (setting [4]), 0.3 ± 0.04 µM; with PA-1 (setting [5]) it was 0.09 ± 0.04 µM; in the test with PA-1 (setting [6]), 0.08 ± 0.04 µM; in the test on SK-OV-3 it was 40 ± 16 nM; in the test with 786-O, 2650 ± 80 nM. The GI50 in the test on Hela-229 worked out at 1000 ± 270 nM; in the test on NCI-H23, 520 ± 40 nM.

On to `CN(C)Cc1ccc(-c2cn(Cc3ccc(/C=C/C(=O)NO)cc3)nn2)cc1` [Example 21], for which the “HDAC % Inhibition (1 μM)” value in test [1] (Hela nuclear extract) was 98%. The “HDAC % Inhibition (10 μM)” value in test [1] (Hela nuclear extract) worked out at 100%. The values for the IC50 (in test [1] (setting [2]); on hERG) were 8 nM and 42.6 µM, respectively. The EC50 in the test on Caspase-3 stood at 4090 nM. For the same compound, the GI50 in the test on NCI-H460 (setting [4]) was 1.9 ± 0.74 µM; with PA-1 (setting [5]), 0.11 ± 0.04 µM; in the test on PA-1 (setting [6]), 0.1 ± 0.01 µM; in the test on SK-OV-3, 1700 ± 160 nM; with 786-O it was 2000 ± 1100 nM; in the test on Hela-229, 700 ± 470 nM. In the test with NCI-H23, this compound displayed a GI50 of 500 ± 240 nM.

In the case of `O=C(/C=C/c1cccc(Cn2cc(-c3ccc(CN4CCOCC4)cc3)nn2)c1)NO` [Example 25, N-Hydroxy-3-{3-[4-(4-morpholin-4-ylmethyl-phenyl)-[1,2,3]triazol-1-ylmethyl]-phenyl}-acrylamide hydrochloride], in [1] (Hela nuclear extract), the “HDAC % Inhibition (1 μM)” value is given as 100%. For the same compound, in test [1] (Hela nuclear extract), the “HDAC % Inhibition (10 μM)” value amounted to 101%. In addition, the figures for the IC50 (in test [1] (setting [2]); at hERG) were 1 nM and more than 100 µM, respectively. The results for the EC50 with HL-60 (AML) cells and in the test with Caspase-3 were 3830 nM and 3620 nM, respectively. For the same compound, the GI50 stood at 0.8 µM with NCI-H460 (setting [3]); 0.45 ± 0.28 µM in the test with NCI-H460 (setting [4]); 0.04 ± 0.01 µM in the test with PA-1 (setting [5]); 0.04 ± 0.01 µM with PA-1 (setting [6]); 500 ± 1200 nM with SK-OV-3; 1500 ± 700 nM in the test with 786-O. Moreover, the GI50 in the test with Hela-229 stood at 600 ± 380 nM; with NCI-H23, 400 ± 90 nM.

Source of the values: patent US20120101099A1, “HISTONE DEACETYLASE INHIBITORS” (ANTHEM BIOSCIENCES PRIVATE LIMITED, priority 2009, published 2012).
